Laboratory results from the NIST ThermoML archive (doi:10.1016/j.jct.2016.12.019).
Numbers after ± are expanded uncertainties.

Tests used:
[1] = xn = mol fraction of the nth substance listed; conditions: 100 kPa, Liquid, x2 = 0; for viscosity: Capillary tube (Ostwald / Ubbelohde) method; for speed of sound: Frequency=2 MHz, Linear variable-path acoustic interferometer; for mass density: Vibrating tube method
[2] = 100 kPa, Liquid; for viscosity: Capillary tube (Ostwald / Ubbelohde) method; for speed of sound: Frequency=2 MHz, Linear variable-path acoustic interferometer; for mass density: Vibrating tube method

Row | Compound | viscosity ([1]; 303.15 K) | speed of sound ([1]; 303.15 K) | mass density ([1]; 303.15 K) | viscosity ([1]; 308.15 K) | speed of sound ([1]; 308.15 K) | mass density ([1]; 308.15 K) | viscosity ([1]; 313.15 K) | speed of sound ([1]; 313.15 K) | mass density ([1]; 313.15 K) | viscosity ([1]; 318.15 K) | speed of sound ([1]; 318.15 K) | mass density ([1]; 318.15 K) | viscosity ([2]; 303.15 K) | speed of sound ([2]; 303.15 K) | mass density ([2]; 303.15 K) | viscosity ([2]; 308.15 K) | speed of sound ([2]; 308.15 K) | mass density ([2]; 308.15 K) | viscosity ([2]; 313.15 K) | speed of sound ([2]; 313.15 K) | other results
1 | CCCCCCCCO [octan-1-ol] + CCN(CC)c1ccccc1 | 6.405 ± 0.17 mPa·s | 1333.5 ± 8.2 m/s | 818.25 ± 1.1 kg/m3 | 5.422 ± 0.15 mPa·s | 1312.5 ± 8 m/s | 814.72 ± 1.1 kg/m3 | 4.625 ± 0.13 mPa·s | 1295.4 ± 7.9 m/s | 810.07 ± 1.1 kg/m3 | 4.051 ± 0.11 mPa·s | 1282.5 ± 7.8 m/s | 805.52 ± 1.1 kg/m3 | – | – | – | – | – | – | – | – | –
2 | CCCCCCCCCCO [decan-1-ol] + CCN(CC)c1ccccc1 | 9.751 ± 0.27 mPa·s | 1363.5 ± 8.3 m/s | 822.89 ± 1.1 kg/m3 | 8.138 ± 0.22 mPa·s | 1344.2 ± 8.2 m/s | 819.54 ± 1.1 kg/m3 | 6.846 ± 0.19 mPa·s | 1328.5 ± 8.1 m/s | 815.95 ± 1.1 kg/m3 | 5.879 ± 0.16 mPa·s | 1320.5 ± 8 m/s | 811.35 ± 1.1 kg/m3 | – | – | – | – | – | – | – | – | –
3 | CCCCCCCCCO [nonan-1-ol] + CCN(CC)c1ccccc1 | 7.809 ± 0.21 mPa·s | 1357 ± 8.3 m/s | 821.36 ± 1.1 kg/m3 | 6.499 ± 0.18 mPa·s | 1334 ± 8.2 m/s | 817.54 ± 1.1 kg/m3 | 5.665 ± 0.15 mPa·s | 1313 ± 8 m/s | 814.05 ± 1.1 kg/m3 | 4.676 ± 0.13 mPa·s | 1293.5 ± 7.9 m/s | 808.97 ± 1.1 kg/m3 | – | – | – | – | – | – | – | – | –
4 | CCCCCCCCCO [nonan-1-ol] | – | – | – | – | – | – | – | – | – | – | – | – | 7.809 ± 0.21 mPa·s | 1357 ± 8.3 m/s | 821.36 ± 1.1 kg/m3 | 6.499 ± 0.18 mPa·s | 1334 ± 8.2 m/s | 817.54 ± 1.1 kg/m3 | 5.665 ± 0.15 mPa·s | 1313 ± 8 m/s | mass density ([2]; 313.15 K): 814.05 ± 1.1 kg/m3; viscosity ([2]; 318.15 K): 4.676 ± 0.13 mPa·s; speed of sound ([2]; 318.15 K): 1293.5 ± 7.9 m/s; mass density ([2]; 318.15 K): 808.97 ± 1.1 kg/m3
5 | CCN(CC)c1ccccc1 [N,N-diethylaniline] | – | – | – | – | – | – | – | – | – | – | – | – | 1.711 ± 0.046 mPa·s | 1432 ± 8.7 m/s | 925.8 ± 1.1 kg/m3 | 1.537 ± 0.041 mPa·s | 1416 ± 8.6 m/s | 921.8 ± 1.1 kg/m3 | 1.4 ± 0.038 mPa·s | 1398 ± 8.5 m/s | mass density ([2]; 313.15 K): 917.9 ± 1.1 kg/m3; viscosity ([2]; 318.15 K): 1.276 ± 0.034 mPa·s; speed of sound ([2]; 318.15 K): 1378 ± 8.4 m/s; mass density ([2]; 318.15 K): 913.8 ± 1.1 kg/m3
